Some test systems named below: OVCAR-5; HOP-62; MDA-MB-435; UACC-257; HOP-92; MDA-N; SK-MEL-2; BT-549; T47D; K562; MDA-MB-231; ACHN; RXF 393; SK-MEL-5; SF-268; SW-620; SF-539; UO-31; KM12.
Holding throughout (assay): NCI-60 cell line screen, 48 h

“And” between values parts separate entries of the source, which are not always exact repeats. Equal values may be shown once.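 96-well plates; 48 h exposure; 5 concentrations. Endpoints by linear interpolation between flanking doses. Not reached: highest tested concentration assigned. GI50: concentration for 50% inhibition of growth.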 The source made the active and inactive calls. No stated cut-off is given here; in the data, active = GI50 up to about 1.1 µM and inactive = higher. A value given as a limit tells only on which side of the number the result lay.

`CCC(C)C1=C(O)[N+]2([O-])Oc3ccc(-c4c(O)c(O)c(-c5ccc(OC(C)=O)cc5)c(OC(C)=O)c4OC(C)=O)cc3OC2(C(C)CC)C(=O)N1O` (stereo not given): the GI50 with OVCAR-5 was > 50 µM (inactive); with HOP-62 it was > 50 µM (inactive); with MDA-MB-435, 26.1 µM (inactive) and 22.9 µM (inactive); in the assay with UACC-257, > 50 µM (inactive); in the assay on HOP-92, 8.17 µM (inactive) and 10 µM (inactive); with MDA-N, 36.3 µM (inactive) and 24.3 µM (inactive). The GI50 in the assay on SK-MEL-2 is > 50 µM (inactive); in the assay on BT-549, 45.6 µM (inactive); with T47D, 42.7 µM (inactive); in the assay with K562, 28.8 µM (inactive) and 15.4 µM (inactive); in the assay with MDA-MB-231, > 50 µM (inactive); with ACHN, > 50 µM (inactive). The GI50 in the assay on RXF 393 was > 50 µM (inactive); in the assay on SK-MEL-5, > 50 µM (inactive) and 29.2 µM (inactive); with SF-268, 41.2 µM (inactive); in the assay on SW-620, 24.2 µM (inactive); in the assay with SF-539, > 50 µM (inactive); with UO-31, > 50 µM (inactive). For the same compound, the GI50 with KM12 is > 50 µM (inactive).

Turning to `CC1(C)CC[C@]2(C(=O)O)CC[C@]3(C)C(=CC[C@@H]4[C@@]5(C)C[C@H](O)[C@H](O)[C@@](C)(C(=O)O)[C@@H]5CC[C@]43C)[C@@H]2C1`, the GI50 in the assay with OVCAR-5, with HOP-62, in the assay with MDA-MB-435, in the assay on UACC-257, in the assay on HOP-92 and in the assay with MDA-N was > 100 µM (inactive) each time. For the same compound, the GI50 in the assay with SK-MEL-2 was > 100 µM (inactive); in the assay with BT-549, > 100 µM (inactive); in the assay on T47D it was > 100 µM (inactive); in the assay with K562, 78.3 µM (inactive); in the assay with MDA-MB-231 it was > 100 µM (inactive); with ACHN it was > 100 µM (inactive). Moreover, the GI50 in the assay with RXF 393, in the assay with SK-MEL-5, in the assay with SF-268, with SW-620, with SF-539 and in the assay on UO-31 was > 100 µM (inactive) throughout. Also, in the assay on KM12, the GI50 was > 79.1 µM (inactive).

For the compound `COc1cccc2c1C(=O)c1ccc3cc(CCl)cc(O)c3c1C2=O`, the GI50 in the assay with OVCAR-5 was 0.157 µM (active); in the assay on HOP-62, 0.483 µM (active); in the assay on MDA-MB-435, 0.198 µM (active); in the assay with UACC-257 it was 0.269 µM (active); with HOP-92, 0.394 µM (active); in the assay on MDA-N it was 0.231 µM (active). For the same compound, the GI50 was 0.33 µM (active) with SK-MEL-2; 0.305 µM (active) in the assay on BT-549; 1.2 µM (inactive) in the assay on T47D; 0.29 µM (active) with K562; 0.205 µM (active) in the assay on MDA-MB-231; 0.233 µM (active) with ACHN. The GI50 in the assay on RXF 393 was 0.244 µM (active); in the assay with SK-MEL-5 it was 0.364 µM (active); in the assay on SF-268 it was 0.379 µM (active); in the assay with SW-620 it was 0.127 µM (active); in the assay with SF-539 it was 0.272 µM (active); in the assay with UO-31, 0.336 µM (active). Moreover, in the assay on KM12, the GI50 is 0.0605 µM (active).

In the case of `COC(=O)CC(C#N)(OP1(=O)OC(c2ccccc2)C(C)N1C)c1ccccc1` (stereo not given), the GI50 was 27.4 µM (inactive) in the assay with OVCAR-5; 30.7 µM (inactive) in the assay with HOP-62; 21.4 µM (inactive) with MDA-MB-435; 20.6 µM (inactive) with UACC-257; 32.3 µM (inactive) with HOP-92; 26.8 µM (inactive) in the assay with MDA-N. Besides, the GI50 was 27.2 µM (inactive) in the assay with SK-MEL-2; 36.2 µM (inactive) in the assay with BT-549; 28.1 µM (inactive) in the assay with T47D; 24.3 µM (inactive) in the assay with K562; 42.4 µM (inactive) with MDA-MB-231; 25.9 µM (inactive) in the assay on ACHN. Further, the GI50 was 20.6 µM (inactive) with RXF 393; 64.3 µM (inactive) in the assay on SK-MEL-5; 30.3 µM (inactive) with SF-268; 17.3 µM (inactive) in the assay on SW-620; 37.5 µM (inactive) with SF-539; 12.1 µM (inactive) in the assay on UO-31. Further, in the assay with KM12, the GI50 is 20.6 µM (inactive).

Regarding `CC(=O)N1N=C(c2c(O)ccc3ccccc23)CC1c1ccc(Cl)cc1` (stereo not given), the GI50 in the assay with OVCAR-5 is 14.7 µM (inactive); in the assay on HOP-62 it was 16 µM (inactive); in the assay on MDA-MB-435, 22.4 µM (inactive); in the assay with UACC-257, 27.9 µM (inactive); in the assay with HOP-92, 10.9 µM (inactive); in the assay with MDA-N it was 19.5 µM (inactive). The GI50 in the assay on SK-MEL-2 is 17.5 µM (inactive); in the assay with BT-549, 21 µM (inactive); in the assay on T47D, 37.5 µM (inactive); in the assay with K562 it was 13.1 µM (inactive); in the assay on MDA-MB-231 it was 19.1 µM (inactive); in the assay on ACHN it was 25.5 µM (inactive). In addition, the GI50 is 17.1 µM (inactive) in the assay with RXF 393; 21 µM (inactive) in the assay with SK-MEL-5; 26.3 µM (inactive) in the assay on SF-268; 28.4 µM (inactive) in the assay on SW-620; 18.4 µM (inactive) with SF-539; 19.8 µM (inactive) with UO-31. Further, the GI50 in the assay with KM12 is 13.7 µM (inactive).

For the compound `Cc1cccc(C(C)C)c1NC(=O)C(=O)CC(=O)c1sc(Nc2ccccc2Cl)nc1C`, the GI50 was > 100 µM (inactive) with OVCAR-5; > 100 µM (inactive) with HOP-62; 7.26 µM (inactive) with MDA-MB-435; 54.5 µM (inactive) in the assay on UACC-257; 10.4 µM (inactive) in the assay on HOP-92; 9.79 µM (inactive) in the assay on MDA-N. The GI50 in the assay on SK-MEL-2 is 12.8 µM (inactive); in the assay on BT-549, 32.7 µM (inactive); with T47D, 35.8 µM (inactive); with K562, > 10 µM (inactive); with MDA-MB-231, 41 µM (inactive); with ACHN, 51.4 µM (inactive). Besides, the GI50 with RXF 393 was 40.6 µM (inactive); with SK-MEL-5, 13.5 µM (inactive); with SF-268, 58.2 µM (inactive); with SW-620 it was 35.2 µM (inactive); in the assay on SF-539, 4 µM (inactive); with UO-31, 18.9 µM (inactive). Further, the GI50 with KM12 was 23.1 µM (inactive).

In the case of `COC(=O)C(=O)C(C(=O)C(=O)Nc1ccccc1OC)c1nc2ccc([N+](=O)[O-])cc2nc1O` (stereo not given), the GI50 in the assay with OVCAR-5 is > 100 µM (inactive); with HOP-62 it was > 100 µM (inactive); with MDA-MB-435, 35.6 µM (inactive); in the assay with UACC-257, > 100 µM (inactive); in the assay on HOP-92, > 100 µM (inactive); in the assay on MDA-N it was 32.7 µM (inactive). Also, the GI50 with SK-MEL-2, in the assay with BT-549, with T47D, in the assay on K562, in the assay with MDA-MB-231 and with ACHN was > 100 µM (inactive) each time. Besides, the GI50 was > 100 µM (inactive) in the assay with RXF 393; > 100 µM (inactive) in the assay with SK-MEL-5; > 100 µM (inactive) in the assay on SF-268; > 100 µM (inactive) with SW-620; > 100 µM (inactive) in the assay with SF-539; 45.3 µM (inactive) with UO-31. Also, the GI50 with KM12 is 54.3 µM (inactive).

As for `Cc1ccc(/N=C2N=C(Cl)/C(=C\c3ccco3)N\2)cc1`, the GI50 in the assay with OVCAR-5, in the assay with HOP-62, with MDA-MB-435, in the assay on UACC-257, with HOP-92 and in the assay on MDA-N was > 100 µM (inactive) in each case. In addition, the GI50 in the assay with SK-MEL-2, in the assay with BT-549, in the assay with T47D, with K562, with MDA-MB-231 and in the assay on ACHN was > 100 µM (inactive) throughout. In addition, the GI50 with RXF 393, in the assay with SK-MEL-5, with SF-268, with SW-620, in the assay on SF-539 and with UO-31 was > 100 µM (inactive) each time. For the same compound, the GI50 in the assay with KM12 was > 100 µM (inactive).

On to `NC(=S)N/N=C\c1nccc2ccccc12`, for which the GI50 in the assay with OVCAR-5 is 0.264 µM (active); with HOP-62, 0.321 µM (active); with MDA-MB-435, 0.388 µM (active); in the assay on UACC-257 it was 1.42 µM (inactive); in the assay with HOP-92, 0.264 µM (active); in the assay with MDA-N it was 0.429 µM (active). The GI50 is 6 µM (inactive) in the assay with SK-MEL-2; 0.424 µM (active) in the assay with BT-549; 2.69 µM (inactive) with T47D; 0.731 µM (active) in the assay on K562; 0.46 µM (active) with MDA-MB-231; 0.0501 µM (active) in the assay with ACHN. In addition, the GI50 was 0.357 µM (active) with RXF 393; 0.143 µM (active) in the assay with SK-MEL-5; 0.216 µM (active) with SF-268; 0.561 µM (active) in the assay on SW-620; 0.155 µM (active) in the assay on SF-539; 0.36 µM (active) in the assay with UO-31. The GI50 with KM12 was 0.885 µM (active).

For the compound `O=C1C=C(c2ccccc2)OC1C1Sc2ccccc2NC1=O` (stereo not given), the GI50 in the assay with OVCAR-5 is 13.8 µM (inactive); in the assay on HOP-62, 1.04 µM (active); in the assay on MDA-MB-435, 5.11 µM (inactive); in the assay with UACC-257 it was 7.6 µM (inactive); in the assay on HOP-92, 9.68 µM (inactive); in the assay with MDA-N, 4.48 µM (inactive). Further, the GI50 with SK-MEL-2 was 8.51 µM (inactive); in the assay with BT-549 it was 14.6 µM (inactive); in the assay with T47D, 10.4 µM (inactive); in the assay with K562 it was 3.3 µM (inactive); in the assay on MDA-MB-231, 10.9 µM (inactive); in the assay with ACHN, 4.9 µM (inactive). Also, the GI50 in the assay with RXF 393 was 14 µM (inactive); with SK-MEL-5, 9.51 µM (inactive); in the assay on SF-268 it was 7.71 µM (inactive); in the assay with SW-620, 9.23 µM (inactive); in the assay with SF-539, 5.38 µM (inactive); with UO-31, 7.26 µM (inactive). Moreover, the GI50 in the assay with KM12 is 7.76 µM (inactive).

Source of the values: ChEMBL document CHEMBL1201862, “PubChem BioAssay data set” (2004).
